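Five compound concentrations were applied to cells in 96-well plates for 48 hours; endpoints were derived by simple linear interpolation of the resulting dose-response curve. GI50 marks 50% less growth.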 Active and inactive are the calls of the source. Rule as the data show it: active = GI50 up to about 1.1 µM and inactive = higher.

What all share (assay): growth of human tumour cells (NCI), 48 h
For experiment [1], the system named is ACHN.
In experiment [2] the test system is CAKI-1.
In experiment [3] the test system is COLO 205.
Experiment [4] relates to DU-145.
Experiment [5] deals with HCT-116.
For experiment [6], the system named is HL-60.
Experiment [7] relates to HOP-62.
Experiment [8] concerns Hs-578T.
In experiment [9] the test system is M14.
Experiment [10] deals with MCF7.
In experiment [11] the test system is NCI-H23.
Experiment [12] deals with NCI-H460.
Experiment [13] relates to PC-3.
Experiment [14] relates to SF-295.
Experiment [15] deals with SF-539.
In experiment [16] the test system is SK-MEL-28.
In experiment [17] the test system is SNB-75.
For experiment [18], the system named is T47D.
For experiment [19], the system named is UACC-62.
Experiment [20] concerns UO-31.

With `COc1cc2c3c(cc(Cl)nc3c1OC)C(O)(CC(C)=O)C(=O)N2` (stereo not given), the GI50 is 24.9 µM (inactive) in [1]; 22.1 µM (inactive) in [2]; 38.1 µM (inactive) in experiment [3]; > 39.1 µM (inactive) in experiment [4]; 17.3 µM (inactive) in experiment [5]; 6.79 µM (inactive) in [6]. In addition, the GI50 in [7] was > 44.6 µM (inactive); in experiment [8] it was 40.3 µM (inactive); in experiment [9], 18.9 µM (inactive); in experiment [10], 16 µM (inactive); in [11], 30.7 µM (inactive); in experiment [12], 36 µM (inactive). Also, the GI50 was 25.1 µM (inactive) in experiment [13]; > 100 µM (inactive) in [14]; > 100 µM (inactive) in [15]; > 45.4 µM (inactive) in experiment [16]; 38.6 µM (inactive) in experiment [17]; 3.2 µM (inactive) in experiment [18]. Besides, the GI50 in experiment [19] is 16.6 µM (inactive); in [20], 23.2 µM (inactive).

`CC1(O)Oc2ccc3ccccc3c2C=C1C(N)=O` (stereo not given): the GI50 in experiment [1] was > 100 µM (inactive); in experiment [2] it was 80.5 µM (inactive); in [3], > 100 µM (inactive); in experiment [4], > 100 µM (inactive); in [5], > 100 µM (inactive); in experiment [6], > 100 µM (inactive). The GI50 in experiment [7] is 36.7 µM (inactive); in experiment [8] it was > 100 µM (inactive); in experiment [9], 66.4 µM (inactive); in experiment [10] it was > 100 µM (inactive); in experiment [11], > 100 µM (inactive); in experiment [12], 61.1 µM (inactive). For the same compound, the GI50 in experiment [13] was 64.9 µM (inactive); in experiment [14], > 100 µM (inactive); in experiment [15], 42.1 µM (inactive); in experiment [16] it was > 100 µM (inactive); in experiment [17], 52 µM (inactive); in experiment [18], 36.6 µM (inactive). Also, the GI50 in experiment [19] and in experiment [20] was > 100 µM (inactive) throughout.

As for `C=C1C(=O)O[C@@H]2C[C@@H]3[C@]4(CC[C@]5(C)[C@@H]([C@H](C)CC/C=C(\C)C=O)CC[C@@]35C)C[C@]4(CCC(=O)OC)[C@H]12`, the GI50 in experiment [1] is 2.06 µM (inactive); in [2] it was 3.26 µM (inactive); in experiment [3], 2.39 µM (inactive); in experiment [4], 1.79 µM (inactive); in experiment [5], 0.771 µM (active); in experiment [6], 0.367 µM (active). Also, the GI50 in experiment [7] was 2.38 µM (inactive); in experiment [8], 3.01 µM (inactive); in experiment [9] it was 1.36 µM (inactive); in [10], 1.46 µM (inactive); in experiment [11] it was 1.84 µM (inactive); in experiment [12] it was 2.8 µM (inactive). For the same compound, the GI50 in experiment [13] was 1.9 µM (inactive); in experiment [14], 2.14 µM (inactive); in [15], 2 µM (inactive); in [16] it was 2 µM (inactive); in [17], 2.4 µM (inactive); in [18] it was 1.9 µM (inactive). Moreover, the GI50 was 1.56 µM (inactive) in experiment [19] and 2 µM (inactive) in [20].

Turning to `Cc1ccc(Nc2nc(C)c(C(=O)CC(=O)C(=O)Nc3ccc(Cl)cc3)s2)cc1`, the GI50 in [1], in [2], in experiment [3], in [4], in [5] and in [6] was > 100 µM (inactive) each time. The GI50 in [7], in experiment [8], in experiment [9], in experiment [10], in experiment [11] and in experiment [12] was > 100 µM (inactive) each time. Moreover, the GI50 in [13] was > 100 µM (inactive); in experiment [14], > 100 µM (inactive); in experiment [15], > 100 µM (inactive); in experiment [16], > 100 µM (inactive); in [17] it was 30.9 µM (inactive); in experiment [18], > 100 µM (inactive). The GI50 in [19] and in [20] was > 100 µM (inactive) each time.
